Measurements published in the supplement of paper PMC10307832.

What was measured:
Assay in all cases: relative viability (nuclei count vs DMSO), 5 days (fraction); higher = more cells survive
[1] = system: SW 1573
Outline: (§1)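 Relative viability divides the nuclei count in treated wells by that in vehicle wells. Lung cancer cell lines were seeded in 1536-well plates, dosed by pin tool the next day, and fixed and stained after 5 days in one step with final 0.05% Triton X-100, 1% formaldehyde and 1 ug/ml Hoechst. Dosing was a single drug or a fixed anchor-drug dose plus five library-drug doses (not always all listed) in √10 steps, and values are medians of duplicate plates imaged at 4×.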

[2] = system: SW 900
Outline: as §1

[3] = system: NCI-H838
Outline: as §1

[4] = system: UMC-11
Outline: as §1

[5] = system: NCI-H23
Outline: as §1

[6] = system: NCI-H2023
Outline: as §1

[7] = system: LC-2-ad
Outline: as §1

[8] = system: NCI-H1975
Outline: as §1

[9] = system: NCI-H1651
Outline: as §1

[10] = system: NCI-H2009
Outline: as §1

[11] = system: NCI-H650
Outline: as §1

[12] = system: NCI-H1650
Outline: as §1

[13] = system: EPLC-272H
Outline: as §1

[14] = system: HARA
Outline: as §1

[15] = system: NCI-H727
Outline: as §1

[16] = system: NCI-H2228
Outline: as §1

[17] = system: NCI-H2087
Outline: as §1

[18] = system: NCI-H2170
Outline: as §1

[19] = system: LOU-NH91
Outline: as §1

[20] = system: NCI-H2085
Outline: as §1

[21] = system: NCI-H441
Outline: as §1

[22] = system: PC-3 [JPC-3]
Outline: as §1

[23] = system: H3255
Outline: as §1

## Cc1csc(=NC2CCCCC2)n1/N=C/c1ccc(O)c(O)c1O [MIM1] + N=C(N)NC(=N)NCCc1ccccc1 [Phenformin] (partner 250 µM)
[1]; first compound 0.2 µM
  relative viability: 0.377
[1]; first compound 0.6325 µM
  relative viability: 0.455
[1]; first compound 2 µM
  relative viability: 0.442
[1]; first compound 6.325 µM
  relative viability: 0.25
[1]; first compound 20 µM
  relative viability: 0.081
[2]; first compound 0.2 µM
  relative viability: 0.683
[2]; first compound 0.6325 µM
  relative viability: 0.712
[2]; first compound 2 µM
  relative viability: 0.778
[2]; first compound 6.325 µM
  relative viability: 0.495
[2]; first compound 20 µM
  relative viability: 0.176
[3]; first compound 0.2 µM
  relative viability: 0.543
[3]; first compound 0.6325 µM
  relative viability: 0.621
[3]; first compound 2 µM
  relative viability: 0.562
[3]; first compound 6.325 µM
  relative viability: 0.354
[3]; first compound 20 µM
  relative viability: 0.14
[4]; first compound 0.2 µM
  relative viability: 0.326
[4]; first compound 2 µM
  relative viability: 0.336
[4]; first compound 6.325 µM
  relative viability: 0.291
[4]; first compound 20 µM
  relative viability: 0.201
[5]; first compound 0.2 µM
  relative viability: 0.809
[5]; first compound 2 µM
  relative viability: 0.711
[5]; first compound 6.325 µM
  relative viability: 0.598
[5]; first compound 20 µM
  relative viability: 0.2
[6]; first compound 0.2 µM
  relative viability: 0.417
[6]; first compound 0.6325 µM
  relative viability: 0.416
[6]; first compound 2 µM
  relative viability: 0.294
[6]; first compound 6.325 µM
  relative viability: 0.127
[6]; first compound 20 µM
  relative viability: 0.0931
[7]; first compound 0.2 µM
  relative viability: 0.679
[7]; first compound 0.6325 µM
  relative viability: 0.502
[7]; first compound 2 µM
  relative viability: 0.537
[7]; first compound 6.325 µM
  relative viability: 0.389
[7]; first compound 20 µM
  relative viability: 0.217
[8]; first compound 0.2 µM
  relative viability: 0.432
[8]; first compound 0.6325 µM
  relative viability: 0.403
[8]; first compound 2 µM
  relative viability: 0.39
[8]; first compound 6.325 µM
  relative viability: 0.296
[8]; first compound 20 µM
  relative viability: 0.179
[9]; first compound 0.2 µM
  relative viability: 0.351
[9]; first compound 0.6325 µM
  relative viability: 0.275
[9]; first compound 2 µM
  relative viability: 0.39
[9]; first compound 6.325 µM
  relative viability: 0.291
[9]; first compound 20 µM
  relative viability: 0.165
[10]; first compound 0.2 µM
  relative viability: 0.493
[10]; first compound 0.6325 µM
  relative viability: 0.479
[10]; first compound 2 µM
  relative viability: 0.45
[10]; first compound 6.325 µM
  relative viability: 0.309
[10]; first compound 20 µM
  relative viability: 0.169
[11]; first compound 0.2 µM
  relative viability: 0.477
[11]; first compound 0.6325 µM
  relative viability: 0.389
[11]; first compound 2 µM
  relative viability: 0.474
[11]; first compound 6.325 µM
  relative viability: 0.412
[11]; first compound 20 µM
  relative viability: 0.241
[12]; first compound 0.2 µM
  relative viability: 0.461
[12]; first compound 0.6325 µM
  relative viability: 0.406
[12]; first compound 2 µM
  relative viability: 0.412
[12]; first compound 6.325 µM
  relative viability: 0.155
[12]; first compound 20 µM
  relative viability: 0.164
[13]; first compound 0.2 µM
  relative viability: 0.324
[13]; first compound 0.6325 µM
  relative viability: 0.273
[13]; first compound 2 µM
  relative viability: 0.279
[13]; first compound 6.325 µM
  relative viability: 0.184
[13]; first compound 20 µM
  relative viability: 0.104
[14]; first compound 0.2 µM
  relative viability: 0.455
[14]; first compound 2 µM
  relative viability: 0.49
[14]; first compound 6.325 µM
  relative viability: 0.16
[14]; first compound 20 µM
  relative viability: 0.0907
[15]; first compound 0.2 µM
  relative viability: 0.513
[15]; first compound 0.6325 µM
  relative viability: 0.559
[15]; first compound 2 µM
  relative viability: 0.481
[15]; first compound 6.325 µM
  relative viability: 0.561
[15]; first compound 20 µM
  relative viability: 0.301
[16]; first compound 0.2 µM
  relative viability: 0.389
[16]; first compound 0.6325 µM
  relative viability: 0.272
[16]; first compound 2 µM
  relative viability: 0.332
[16]; first compound 6.325 µM
  relative viability: 0.145
[16]; first compound 20 µM
  relative viability: 0.0959
[17]; first compound 0.2 µM
  relative viability: 0.457
[17]; first compound 0.6325 µM
  relative viability: 0.443
[17]; first compound 2 µM
  relative viability: 0.478
[17]; first compound 6.325 µM
  relative viability: 0.289
[17]; first compound 20 µM
  relative viability: 0.225
[18]; first compound 0.2 µM
  relative viability: 0.407
[18]; first compound 0.6325 µM
  relative viability: 0.406
[18]; first compound 2 µM
  relative viability: 0.414
[18]; first compound 6.325 µM
  relative viability: 0.264
[18]; first compound 20 µM
  relative viability: 0.172
[19]; first compound 0.2 µM
  relative viability: 0.695
[19]; first compound 0.6325 µM
  relative viability: 0.709
[19]; first compound 2 µM
  relative viability: 0.625
[19]; first compound 6.325 µM
  relative viability: 0.548
[19]; first compound 20 µM
  relative viability: 0.302
[20]; first compound 0.2 µM
  relative viability: 0.739
[20]; first compound 0.6325 µM
  relative viability: 0.713
[20]; first compound 2 µM
  relative viability: 0.788
[20]; first compound 6.325 µM
  relative viability: 0.589
[20]; first compound 20 µM
  relative viability: 0.468
[21]; first compound 0.2 µM
  relative viability: 0.914
[21]; first compound 2 µM
  relative viability: 0.865
[21]; first compound 6.325 µM
  relative viability: 0.543
[21]; first compound 20 µM
  relative viability: 0.203
[22]; first compound 0.2 µM
  relative viability: 0.458
[22]; first compound 0.6325 µM
  relative viability: 0.488
[22]; first compound 2 µM
  relative viability: 0.517
[22]; first compound 6.325 µM
  relative viability: 0.469
[22]; first compound 20 µM
  relative viability: 0.361
[23]; first compound 0.2 µM
  relative viability: 0.33
[23]; first compound 0.6325 µM
  relative viability: 0.386
[23]; first compound 2 µM
  relative viability: 0.379
[23]; first compound 6.325 µM
  relative viability: 0.402
[23]; first compound 20 µM
  relative viability: 0.302
